The results in this text go back to paper PMC5482895, “Structural and biochemical studies of sulphotransferase 18 from Arabidopsis thaliana explain its substrate specificity and reaction mechanism” (Scientific Reports, 2017).

In experiment [1] the target is T1, AtSOT18 (Arabidopsis thaliana, UniProt Q9C9C9).
T1 construct: gene SOT18; residues 26–347 in the model
T1 sequence (Q9C9C9 26-347): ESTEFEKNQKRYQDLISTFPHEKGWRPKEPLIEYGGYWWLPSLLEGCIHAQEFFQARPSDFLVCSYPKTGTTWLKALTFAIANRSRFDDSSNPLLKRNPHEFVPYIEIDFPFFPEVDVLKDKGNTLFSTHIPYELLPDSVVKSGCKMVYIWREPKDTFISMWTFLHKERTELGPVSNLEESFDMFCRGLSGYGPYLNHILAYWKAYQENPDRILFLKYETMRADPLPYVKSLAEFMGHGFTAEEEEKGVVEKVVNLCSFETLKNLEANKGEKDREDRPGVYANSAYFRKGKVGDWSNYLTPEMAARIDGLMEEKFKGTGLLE
As to the kind of experiment: X-ray crystal structure of ternary complex ([…] Å). The experiment is classed as binding.

In experiment [2] the target is T2, AtSOT18 (Arabidopsis thaliana, UniProt Q9C9C9).
T2 construct: gene SOT18
T2 sequence (Q9C9C9 1-350): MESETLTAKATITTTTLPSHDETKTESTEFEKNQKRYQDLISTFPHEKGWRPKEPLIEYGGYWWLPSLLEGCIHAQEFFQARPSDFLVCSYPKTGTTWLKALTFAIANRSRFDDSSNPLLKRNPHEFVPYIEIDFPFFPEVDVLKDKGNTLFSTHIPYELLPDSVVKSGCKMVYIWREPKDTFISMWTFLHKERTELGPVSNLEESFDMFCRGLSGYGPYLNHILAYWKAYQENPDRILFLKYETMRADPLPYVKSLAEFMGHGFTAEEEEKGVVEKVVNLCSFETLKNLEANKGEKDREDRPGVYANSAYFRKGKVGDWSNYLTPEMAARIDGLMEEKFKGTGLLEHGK
The experiment is described as follows: sulphotransferase activity of purified enzyme, HPLC at […] nm. It is filed as biochemical.

Experiment [3] has as its target T2, AtSOT18. Described as above. It is filed as biochemical. The source holds these as a separate data set.
Experiment [4] addresses T2, AtSOT18. The description is as above. It is filed as biochemical. This is another data set of the same source.
In experiment [5] the target is T1, AtSOT18. As to the kind of experiment: X-ray crystal structure ([…] Å), plus competitive inhibition kinetics against PAPS. It is filed as biochemical.
The target of experiment [6] is T2, AtSOT18. As to the kind of experiment: two-dimensional enzyme kinetic titration (HPLC), non-linear fit. The experiment is classed as biochemical.
Experiment [7] addresses T2, AtSOT18. As to the kind of experiment: sulphotransferase activity of purified enzyme, HPLC at […] nm. The experiment is classed as biochemical. This is another data set of the same source.

As for `C=CCC(=NOS(=O)(=O)O)S[C@@H]1O[C@H](CO)[C@@H](O)[C@H](O)[C@H]1O` (stereo in doubt) [sinigrin], at AtSOT18 [1], the “X-ray crystal structure of ternary complex (1.92 Å)” value is recorded as “together with the product Gl sinigrin (PDB ID: 5MEX) were solved”. For the compound `CSCCC/C(=N/O)S[C@@H]1O[C@H](CO)[C@@H](O)[C@H](O)[C@H]1O` [3MTP, ds-3MTP], the “3 MTP” value on AtSOT18 [2] was 1624 ± 122 pkatal mg^−1. Take `CSCCCCCCCC/C(=N/O)S[C@@H]1O[C@H](CO)[C@@H](O)[C@H](O)[C@H]1O` [8MTO, ds-8MTO]: the 8MTO at AtSOT18 [3] worked out at 1618 ± 272 pkatal mg^−1. For the compound `OC[C@H]1O[C@@H](S/C(Cc2c[nH]c3ccccc23)=N\O)[C@H](O)[C@@H](O)[C@@H]1O` [I3M, ds-I3M], the I3M at AtSOT18 [4] is reported as 501 ± 46 pkatal mg^−1. Take `Nc1ncnc2c1ncn2[C@@H]1O[C@H](COP(=O)(O)O)[C@@H](OP(=O)(O)O)[C@H]1O` [PAP, 3′-phosphoadenosine 5′-phosphate]: on AtSOT18 [5], the Ki worked out at 3 ± 1.7 µM. On AtSOT18 [6], `Nc1ncnc2c1ncn2[C@@H]1O[C@H](COP(=O)(O)OS(=O)(=O)O)[C@@H](OP(=O)(O)O)[C@H]1O` [PAPS, 3′-phosphoadenosine 5′-phosphosulphate] had a dissociation constant Kd of 4.2 ± 2.6 µM. `C=CC/C(=N/O)S[C@@H]1O[C@H](CO)[C@@H](O)[C@H](O)[C@H]1O` [Sinigrin (ds form), ds-Gl sinigrin]: the Sinigrin at AtSOT18 [7] is 879 ± 410 pkatal mg^−1.

Usually Ki stands for the dissociation constant of the complex between target and ligand, obtained from inhibition or displacement. The term Kd denotes the free concentration of one partner at which half of the binding sites on the other are occupied at equilibrium, for simple one-to-one binding. A high value points to weaker binding.
